This passage reports inhibition and extent of cleavage results from paper PMC3236199, “Development of Derivatives of 3, 3′-Diindolylmethane as Potent Leishmania donovani Bi-Subunit Topoisomerase IB Poisons” (PLoS ONE, 2011).

Assay [1] concerns L. donovani AG83 promastigotes. Description: Cell viability assay, wild type promastigotes. Conditions: Leishmania donovani, 12 h, read-out: growth inhibited. The assay is classed as cell-based. Here is the method: L. donovani strain AG83 and DIM resistant parasite DR50 promastigotes were grown at 22°C in M199 liquid media supplemented with 10% FBS as described. Axenic amastigotes were cultured in modified M199 medium (pH 5.3) supplemented with 10 mM sodium succinate, 40 mM HEPES and 25% FCS and maintained at 37°C with 5% CO2.The effect of drugs on the viability of Leishmania parasites was determined by direct microscopic counting using light microscope (40× objective) in a haemocytometer. The cells at the exponential phase were collected and transferred into 24-well plate (3.5×10^6 cells per well). The cells were then incubated for 12 h in the presence of various concentrations of DIM, DPDIM, DMDIM and DMODIM (1, 5, 10, 20 and 50 µM). For other experiments, 10^4 cells were taken and grown in presence of the respective derivatives for a period of 30 days. For each 5 day interval, a small amount of aliquots were taken out. After incubation the cells were centrifuged and cell pellet was washed with PBS (1×) twice and finally suspended in 1 ml PBS (1×). Fifty µl of aliquot was taken, mixed with 0.4% trypan blue solution and incubated for 3 min at 22°C. One drop of the mixture was transferred to haemocytometer and the clear (live) and blue (dead) cells were counted. The total number of viable cells in aliquot was calculated by multiplying the total number of viable cells by 2 (the dilution factor for trypan blue). To obtain the total number of cells in the aliquot, total number of viable and nonviable cells were added up and multiplied by 2. Percentages of viable cells were calculated using the formula: [drawing 1]
The effects of different derivatives of DIM on cell proliferation were tested by incubating wild type and DIM resistant L. donovani promastigotes (3.5×10^6 cells/ml) with the drugs. […] The number of live promastigotes was measured by differential staining of live and dead cells using light microscope under 40× objective (Fig. 2). […]
Figure 2 Effect of DIM-derivatives on Leishmania parasites. Growth of L. donovani AG83 promastigotes (A) and DIM resistant promastigotes (B) were monitored in presence of increasing concentrations (1, 5, 10, 20 and 50 µM) of DIM, DPDIM, DMDIM and DMODIM for 12 h. […] Change in IC50 values after a prolong exposure to DIM derivatives (C) has been assessed as described in Materials and Methods. After every 5 day a small aliquot was taken out and number of viable promastigotes was counted for each concentration. IC50 values have been determined from them using Graph Pad Prsim ver 5.0 software and a graphical plot was generated over time. Growth of the parasites treated with the compounds was expressed as percentage of the viable promastigotes compared with that of control. […]

The next assay relates to LdTOP1LS. Put plainly: Equilibrium (duplex oligonucleotide) cleavage assay, wild type enzyme. The assay is classed as biochemical, Leishmania donovani. The conditions noted are these: 20 µM, with respect to cleavable complex formed without drug with wild type enzyme. The protocol: The 25-mer oligonucleotide 1 (5′-GAAAAAAGACTT↓AGAAAAATTTTTA-3′) was 5′-end labeled with [γ^32P] ATP and annealed with oligonucleotide 2 (5′-[…]-3′) to make a duplex oligonucleotide containing a topoisomerase I binding motif as described. Cleavage assay was carried out using 20-fold molar excess of enzymes over duplex 25-mer DNA (enzymes, 0.2 µM; DNA, 10 nM). The reactions were carried out in standard assay condition in the absence or presence of drugs at 37°C for 30 min. All the reactions were stopped by addition of SDS to a final concentration of 2% (w/v), digested with 5 µl of 1 mg/ml trypsin and analyzed by 12% denaturing polyacrylamide gel followed by autoradiography. The amount of strand cleavage in the presence of drugs was determined by densitometry of the film as described.
The effect of DIM and its derivatives on L. donovani topoisomerase I was examined by plasmid DNA cleavage assay as described. The topoisomerase reaction has three general mechanistic steps: (i) binding of enzyme to the substrate DNA, (ii) single strand breakage and subsequent strand rotation through the break leading to change in linking number, and (iii) strand religation. The second step of reaction is the introduction of a single-stranded nick in the phosphodiester bond of the DNA, through which an intact strand is allowed to pass. During this process, a covalent bond is formed between the 3′-phosphoryl group of the DNA backbone and the tyrosine residue at the active site of topoisomerase I. Topoisomerase inhibition can be achieved by prevention of enzyme-DNA binary complex formation or by stabilization of enzyme-DNA cleavable complex. To investigate the ability of DIM-derivatives to stabilize the cleavable complex formation between enzyme and oligonucleotide containing a topoisomerase IB specific binding motif we carried out plasmid cleavage assay as described previously. Cleavage assay was performed with LdTOP1LS and pHOT1 DNA containing a topoisomerase IB specific binding motif as described in ‘Materials and Methods’. […]

Like-named read-outs stand apart in the source and are kept apart here.

As to `c1ccc2c(Cc3c[nH]c4ccccc34)c[nH]c2c1` [DIM, 3, 3′-diindolyl methane, reference compound], the inhibition at 20 µM in assay [1] (20 µM, wild type AG83 promastigotes) turned out to be 88%.
For `Cc1[nH]c2ccccc2c1Cc1c(C)[nH]c2ccccc12` [DMDIM, 2,2′-dimethyl 3,3′-diindolyl methane], in assay [1], the inhibition at 20 µM is 83%. Also, in the assay with LdTOP1LS, the extent of cleavage entry is on record as “approximately 61%”.
For `COc1ccc2[nH]cc(Cc3c[nH]c4ccc(OC)cc34)c2c1` [DMODIM, 5,5′-dimethoxy 3,3′-diindolyl methane], the inhibition at 20 µM in assay [1] is 70%. This compound had an extent of cleavage in the assay on LdTOP1LS of approximately 56%.
Consider `c1ccc(-c2[nH]c3ccccc3c2Cc2c(-c3ccccc3)[nH]c3ccccc23)cc1` [DPDIM, 2,2′-diphenyl 3,3′-diindolyl methane], for which, in assay [1], the inhibition at 20 µM was found to be 96%. Also, the extent of cleavage in the assay on LdTOP1LS worked out at 67%.
